According to patent US11291627B1 (Ocular Therapeutix, Inc., priority 2020, dated 2022):
Where two headings read alike, the source gives them in different places.

How the values were obtained:
[1] = 0.7 mg dose SAZ insert, beagles
[2] = Example 3.2 proof-of-concept PK study: cyclosporine tear fluid concentration and drug released, beagles (Table 3.2); type: in vivo, beagle dogs; conditions: 0.44 mg dose SG insert, over 32 days, assuming consistent daily release
Description: Inserts were removed at 32 days to determine the amount of remaining drug compared to the administered dose.

[3] = cyclosporine specification provided by the supplier; cited from earlier work

With `CC=CCC(C)C(O)C1C(=O)NC(CC)C(=O)N(C)CC(=O)N(C)C(CC(C)C)C(=O)NC(C(C)C)C(=O)N(C)C(CC(C)C)C(=O)NC(C)C(=O)NC(C)C(=O)N(C)C(CC(C)C)C(=O)N(C)C(CC(C)C)C(=O)N(C)C(C(C)C)C(=O)N1C` (stereo not drawn) [Cyclosporine, 30-ethyl-33-(1-hydroxy-2-methylhex-4-enyl)-1,4,7,10,12,15,19,25,28-nonamethyl-6,9,18,24-tetrakis(2-methylpropyl)-3,21-di(propan-2-yl)-1,4,7,10,13,16,19,22,25,28,31-undecazacyclotritriacontane-2,5,8,11,14,17,20,23,26,29,32-undecone] the “average amount of cyclosporine released in 6 weeks” value ([1]; inserts removed at 6 weeks) was 0.37 mg, the “estimated daily delivered dose” value ([1]; over 6 weeks, assuming consistent daily release) was 8.8 µg/day and the “estimated daily delivered dose” value [2] was 6.3 µg/day. For the same molecule, the D10 [3] was 0.5 μm, the D50 [3] was 2.1 μm and the D90 [3] was 7.5 μm.
